Values after ≈ are worked out from the molar mass of the structure shown. Active and inactive are the calls of the source. No cut-off for these calls is given here.
Tests used:
[1] = test system: Aspergillus niger; assay: Antifungal activity against Aspergillus niger MTCC 2546 assessed as growth inhibition at 250 ug/mL after 48 hr by agar diffusion method; type: functional; conditions: for zone of inhibition at 250 µg/mL: MTCC 2546, 48 h, read-out: DIZ
[2] = test system: Bacillus subtilis; assay: Antibacterial activity against Bacillus subtilis MTCC 441 assessed as growth inhibition after 24 hr by tube dilution method; type: functional; conditions: MTCC 441, 24 h
[3] = test system: Pseudomonas fluorescens; assay: Antibacterial activity against Pseudomonas fluorescens MTCC 2421 assessed as growth inhibition at 750 ug/mL after 48 hr by agar diffusion method; type: functional; conditions: MTCC 2421, 48 h, read-out: DIZ
[4] = test system: Micrococcus luteus; assay: Antibacterial activity against Micrococcus luteus MTCC 1538 assessed as growth inhibition at 1250 ug/mL after 48 hr by agar diffusion method; type: functional; conditions: MTCC 1538, 48 h, read-out: DIZ
[5] = test system: Penicillium chrysogenum; assay: Antifungal activity against Penicillium chrysogenum MTCC 161 assessed as growth inhibition at 100 ug/mL after 48 hr by agar diffusion method; type: functional, organism-based
[6] = test system: Pseudomonas aeruginosa; assay: Antibacterial activity against Pseudomonas aeruginosa MTCC 424 assessed as growth inhibition after 24 hr by tube dilution method; type: functional; conditions: MTCC 424, 24 h
[7] = test system: Penicillium chrysogenum; assay: Antifungal activity against Penicillium chrysogenum MTCC 161 assessed as growth inhibition at 250 ug/mL after 48 hr by agar diffusion method; type: functional; conditions: for zone of inhibition at 250 µg/mL: MTCC 161, 48 h, read-out: DIZ
[8] = test system: Micrococcus luteus; assay: Antibacterial activity against Micrococcus luteus MTCC 1538 assessed as growth inhibition at 250 ug/mL after 48 hr by agar diffusion method; type: functional; conditions: for zone of inhibition at 250 µg/mL: MTCC 1538, 48 h, read-out: DIZ
[9] = test system: Bacillus pumilus; assay: Antibacterial activity against Bacillus pumilus MTCC 1456 assessed as growth inhibition at 1250 ug/mL after 48 hr by agar diffusion method; type: functional; conditions: MTCC 1456, 48 h, read-out: DIZ
[10] = test system: Escherichia coli; assay: Antibacterial activity against Escherichia coli MTCC 1573 assessed as growth inhibition at 100 ug/mL after 48 hr by agar diffusion method; type: functional; conditions: for zone of inhibition at 100 µg/mL: MTCC 1573, 48 h, read-out: DIZ
[11] = test system: Aspergillus niger; assay: Antifungal activity against Aspergillus niger MTCC 2546 assessed as growth inhibition after 24 hr by tube dilution method; type: functional; conditions: MTCC 2546, 24 h
[12] = test system: Penicillium chrysogenum; assay: Antifungal activity against Penicillium chrysogenum MTCC 161 assessed as growth inhibition at 750 ug/mL after 48 hr by agar diffusion method; type: functional; conditions: MTCC 161, 48 h, read-out: DIZ
[13] = test system: Micrococcus luteus; assay: Antibacterial activity against Micrococcus luteus MTCC 1538 assessed as growth inhibition at 1000 ug/mL after 48 hr by agar diffusion method; type: functional; conditions: MTCC 1538, 48 h, read-out: DIZ
[14] = test system: Bacillus pumilus; assay: Antibacterial activity against Bacillus pumilus MTCC 1456 assessed as growth inhibition at 100 ug/mL after 48 hr by agar diffusion method; type: functional; conditions: MTCC 1456, 48 h, read-out: DIZ
[15] = test system: Pseudomonas aeruginosa; assay: Antibacterial activity against Pseudomonas aeruginosa MTCC 424 assessed as growth inhibition at 100 ug/mL after 48 hr by agar diffusion method; type: functional; conditions: MTCC 424, 48 h, read-out: DIZ
[16] = test system: Staphylococcus aureus; assay: Antibacterial activity against Staphylococcus aureus MTCC 1430 assessed as growth inhibition at 1250 ug/mL after 48 hr by agar diffusion method; type: functional; conditions: MTCC 1430, 48 h, read-out: DIZ
[17] = test system: Aspergillus niger; assay: Antifungal activity against Aspergillus niger MTCC 2546 assessed as growth inhibition at 1000 ug/mL after 48 hr by agar diffusion method; type: functional; conditions: MTCC 2546, 48 h, read-out: DIZ
[18] = test system: Bacillus subtilis; assay: Antibacterial activity against Bacillus subtilis MTCC 441 assessed as growth inhibition at 1000 ug/mL after 48 hr by agar diffusion method; type: functional; conditions: MTCC 441, 48 h, read-out: DIZ
[19] = test system: Micrococcus luteus; assay: Antibacterial activity against Micrococcus luteus MTCC 1538 assessed as growth inhibition at 500 ug/mL after 48 hr by agar diffusion method; type: functional; conditions: MTCC 1538, 48 h, read-out: DIZ
[20] = test system: Aspergillus niger; assay: Antifungal activity against Aspergillus niger MTCC 2546 assessed as growth inhibition at 500 ug/mL after 48 hr by agar diffusion method; type: functional; conditions: MTCC 2546, 48 h, read-out: DIZ
[21] = test system: Bacillus subtilis; assay: Antibacterial activity against Bacillus subtilis MTCC 441 assessed as growth inhibition at 1250 ug/mL after 48 hr by agar diffusion method; type: functional; conditions: MTCC 441, 48 h, read-out: DIZ
[22] = test system: Escherichia coli; assay: Antibacterial activity against Escherichia coli MTCC 1573 assessed as growth inhibition at 1000 ug/mL after 48 hr by agar diffusion method; type: functional; conditions: MTCC 1573, 48 h, read-out: DIZ
[23] = test system: Bacillus pumilus; assay: Antibacterial activity against Bacillus pumilus MTCC 1456 assessed as growth inhibition at 500 ug/mL after 48 hr by agar diffusion method; type: functional; conditions: MTCC 1456, 48 h, read-out: DIZ
[24] = test system: Staphylococcus aureus; assay: Antibacterial activity against Staphylococcus aureus MTCC 1430 assessed as growth inhibition at 100 ug/mL after 48 hr by agar diffusion method; type: functional, organism-based

SMILES	MIC [2] [mg/L]	zone of inhibition at 750 µg/mL [3] [mm]	zone of inhibition at 1250 µg/mL [4] [mm]	growth inhibition (GI) [5]	MIC [6] [mg/L]	zone of inhibition at 1250 µg/mL [9] [mm]	MIC [11] [mg/L]	zone of inhibition at 750 µg/mL [12] [mm]	zone of inhibition at 1000 µg/mL [13] [mm]	zone of inhibition at 100 µg/mL [14] [mm]	zone of inhibition at 100 µg/mL [15] [mm]	zone of inhibition at 1250 µg/mL [16] [mm]	zone of inhibition at 1000 µg/mL [17] [mm]	zone of inhibition at 1000 µg/mL [18] [mm]	zone of inhibition at 500 µg/mL [19] [mm]	zone of inhibition at 500 µg/mL [20] [mm]	zone of inhibition at 1250 µg/mL [21] [mm]	zone of inhibition at 1000 µg/mL [22] [mm]	zone of inhibition at 500 µg/mL [23] [mm]	growth inhibition (GI) [24]	also measured
O=C1CSC(c2cccc3ccccc23)N1c1nnc2c3cc(Cl)ccc3nc-2s1 (centres undefined)	150 (≈ 334 µM)	15	20	inactive	40 (≈ 89.1 µM)	20	150 (≈ 334 µM)	15	15	8	8	15	15	18	8	11	20	17	13	inactive	zone of inhibition at 250 µg/mL [1]: 8 mm; zone of inhibition at 250 µg/mL [7]: 8 mm; growth inhibition (GI) [8]: inactive; zone of inhibition at 100 µg/mL [10]: 7 mm
O=C1CSC(c2ccccn2)N1c1nnc2c3ccccc3nc-2s1 (centres undefined)	40 (≈ 109 µM)	15	17	inactive	30 (≈ 82.1 µM)	21	150 (≈ 410 µM)	13	15	8	7	15	15	15	11	11	18	18	15	inactive	zone of inhibition at 250 µg/mL [1]: 8 mm; zone of inhibition at 250 µg/mL [7]: 9 mm; zone of inhibition at 250 µg/mL [8]: 8 mm; zone of inhibition at 100 µg/mL [10]: 7 mm
CC1SCC(=O)N1c1nnc2c3ccccc3nc-2s1 (centres undefined)	30 (≈ 99.2 µM)	17	19	inactive	30 (≈ 99.2 µM)	25	250 (≈ 827 µM)	12	17	7	8	17	14	20	12	8	22	18	12	inactive	growth inhibition (GI) [1]: inactive; growth inhibition (GI) [7]: inactive; zone of inhibition at 250 µg/mL [8]: 10 mm; zone of inhibition at 100 µg/mL [10]: 7 mm
O=C1CSC(c2cccc3ccccc23)N1c1nnc2c3ccccc3nc-2s1 (centres undefined)	40 (≈ 96.5 µM)	16	16	inactive	40 (≈ 96.5 µM)	26	250 (≈ 603 µM)	10	14	6	7	18	15	17	8	8	20	15	11	inactive	growth inhibition (GI) [1]: inactive; zone of inhibition at 250 µg/mL [7]: 8 mm; growth inhibition (GI) [8]: inactive; zone of inhibition at 100 µg/mL [10]: 8 mm
CC1SCC(=O)N1c1nnc2c3cc(Cl)ccc3nc-2s1 (centres undefined)	50 (≈ 148 µM)	12	19	inactive	50 (≈ 148 µM)	18	250 (≈ 742 µM)	14	17	8	7	19	15	19	10	10	21	19	12	inactive	growth inhibition (GI) [1]: inactive; growth inhibition (GI) [7]: inactive; growth inhibition (GI) [8]: inactive; zone of inhibition at 100 µg/mL [10]: 9 mm
O=C1CSC(c2ccccn2)N1c1nnc2c3cc(Cl)ccc3nc-2s1 (centres undefined)	150 (≈ 375 µM)	15	19	inactive	30 (≈ 75 µM)	23	200 (≈ 500 µM)	15	15	10	7	17	18	19	8	12	22	20	15	inactive	zone of inhibition at 250 µg/mL [1]: 9 mm; zone of inhibition at 250 µg/mL [7]: 9 mm; zone of inhibition at 250 µg/mL [8]: 7 mm; growth inhibition (GI) [10]: inactive
